Data set [1] has as its system SK-MEL-28 melanoma cell line. Kind of data set: MTT cell proliferation assay in melanoma cells. In kind it is cell-based, human. The settings on record: SK-MEL-28, after 6 days of treatment, read-out: Half-maximal inhibitory concentration (IC50). From the text: Antifolate compounds are designed to inhibit DHFR and act specifically during DNA and RNA synthesis, making them more toxic to rapidly dividing cells. Recent evidences indicate that tea-catechins and derived compounds could inhibit DHFR and block the folate cycle in cancer cells. Although inhibition of DHFR by these compounds could be a plausible explanation for their antifolate activity, the possibility of these compounds targeting (folate)-enzymes other than DHFR could not be excluded. To determine whether these newly synthetized compounds disrupt the folate cycle in cell culture, we studied their antiproliferative activity in the melanoma cell line SK-MEL-28 (Table 3). Concentration- and time-dependent effects were analyzed using the colorimetric 4,5-(3)-dimethylthiazol-2-yl)-2,5-diphenyltetrazolium bromide (MTT) method.
The human melanoma cell line SK-MEL-28 was obtained from American Type Culture Collection (ATCC, Manassas, VA, USA) and was maintained in Eagles’s Minimum Essential Medium (EMEM) supplemented with 10% (v/v) FBS and antibiotics at 37 °C in a humidified atmosphere containing 7.5% CO2. Cell viability was evaluated using the MTT cell proliferation assay. Cells were evaluated for apoptosis using a cell death detection ELISA (Cell Death Detection ELISAPLUS, Roche Diagnostics, Barcelona, Spain). The principle of this test is the detection of mono- and oligonucleosomes in the cytoplasmic fractions of cell lysates using biotinylated anti-histone and peroxidase-coupled anti-DNA antibodies. The amount of nucleosomes is photometrically quantified at 405 nm by the peroxidase activity retained in the immunocomplexes. Apoptosis was defined as the specific enrichment of mono- and oligonucleosomes in the cytoplasm and was calculated by dividing the absorbance of treated samples with the absorbance of untreated samples after correcting for the number of cells. The induction of apoptosis in each melanoma cell line after a 7 h treatment with 2 μM staurosporin (100% apoptotic cells) was used to calculate the number of apoptotic cells. For these assays, cells were plated in a 96-well plate at a density of 1000–2000 cells/well. Compounds were added once at the beginning of the experiments.
For orientation: Tetrazolium dyes change colour on reduction, which living cells bring about.

For data set [2], the target named is T1, bovine serum albumin (BSA) (Bos taurus, UniProt P02769).
T1 construct: purchased Sigma-Aldrich
T1 sequence (P02769 25-607): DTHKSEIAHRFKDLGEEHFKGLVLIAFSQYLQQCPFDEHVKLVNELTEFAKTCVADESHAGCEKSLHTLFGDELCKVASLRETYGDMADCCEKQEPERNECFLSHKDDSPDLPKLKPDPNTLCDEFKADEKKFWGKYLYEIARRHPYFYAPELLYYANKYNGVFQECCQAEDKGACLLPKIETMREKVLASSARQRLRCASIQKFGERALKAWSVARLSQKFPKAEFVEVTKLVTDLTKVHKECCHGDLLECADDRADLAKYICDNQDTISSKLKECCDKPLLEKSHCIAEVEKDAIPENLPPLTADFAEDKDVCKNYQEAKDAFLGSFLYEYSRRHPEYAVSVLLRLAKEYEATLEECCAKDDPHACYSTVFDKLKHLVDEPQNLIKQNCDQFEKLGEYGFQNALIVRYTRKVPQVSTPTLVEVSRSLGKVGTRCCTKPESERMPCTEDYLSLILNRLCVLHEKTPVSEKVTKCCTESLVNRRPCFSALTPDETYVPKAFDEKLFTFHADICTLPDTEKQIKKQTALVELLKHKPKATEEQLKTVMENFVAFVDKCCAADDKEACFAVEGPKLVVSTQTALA
Kind of data set: BSA binding by fluorescence quenching. From the text:
Upon progressive additions of various concentrations of EGCG and TMCG to BSA, the emission intensity decreases, as shown in Figure 4(a). The quenching of the fluorescence intensity of BSA implies that the catechins bind at close proximity to the tryptophan and tyrosine residues and that the molecular arrangement of BSA is affected by the interactions. […] The binding constants (KA) for the BSA-EGCG and BSA-TMCG complexes are 1.54 × 10^7 M^−1 and 1.9 × 10^5 M^−1, respectively (Table 4), and their plots are shown in Figure 4(b). […] In light of these findings, it can be reasoned that the binding affinity to BSA is higher for the galloylated catechin than for the methylated one, which emphasises that the three phenolic groups can enhance hydrogen bonding between BSA and EGCG [25].
Fluorescence measurements were made on an automatic scanning Perkin-Elmer LS50B spectrofluorometer with 1.0 cm light path cells equipped with a 150 W xenon (XBO) light source. In all experiments, the fluorescence of BSA (5 × 10^−6 M) in 50 mM phosphate buffer of pH 7.5 was followed by excitation at 280 nm. The binding affinities of EGCG and TMCG with BSA in terms of binding constants were determined using the following equation [25]: log (F0−F)/F = log KA + n log [Q](1) where KA is the binding constant, n is the number of binding sites, F0 is the fluorescence intensity of free BSA and F is the consequent fluorescence upon the addition of catechins (Q). A plot of log (F0-F)/F against log [Q] was used to determine the values of KA and n from the intercept and the slope, respectively.

Data set [3] concerns the target T1, bovine serum albumin (BSA). Kind of data set: Competitive site-marker (warfarin, ibuprofen) binding to BSA. As to conditions: for Kd: Binding constant (KA), BSA, 25 °C. Here is the method: Next, the site selective binding of both EGCG and TMCG to BSA was analyzed. The capability of serum albumins to bind to aromatic and heterocyclic compounds is largely dependent on the existence of two major binding regions, namely site-I and site-II [25]. Warfarin and ibuprofen are fluorescence probes whose primary binding sites to BSA are site-I and site-II, respectively.
To identify the binding sites of EGCG and TMCG in BSA, the displacements of warfarin and ibuprofen (known to bind at site I and site II, respectively) were followed fluorometrically. Equimolar solutions of BSA and warfarin (5 × 10^−6 M each) were mixed for 1 h and titrated with EGCG and TMCG in separate experiments. Similar solutions containing equimolar ibuprofen and BSA were prepared and separately titrated with EGCG and TMCG to identify the binding sites of EGCG and TMCG with BSA. Titration was followed fluorometrically using an excitation wavelength of 280 nm.

In data set [4] the target is T2, human serum albumin (HSA) (Homo sapiens, UniProt P02768).
T2 construct: purchased Sigma-Aldrich
T2 sequence (P02768 25-609): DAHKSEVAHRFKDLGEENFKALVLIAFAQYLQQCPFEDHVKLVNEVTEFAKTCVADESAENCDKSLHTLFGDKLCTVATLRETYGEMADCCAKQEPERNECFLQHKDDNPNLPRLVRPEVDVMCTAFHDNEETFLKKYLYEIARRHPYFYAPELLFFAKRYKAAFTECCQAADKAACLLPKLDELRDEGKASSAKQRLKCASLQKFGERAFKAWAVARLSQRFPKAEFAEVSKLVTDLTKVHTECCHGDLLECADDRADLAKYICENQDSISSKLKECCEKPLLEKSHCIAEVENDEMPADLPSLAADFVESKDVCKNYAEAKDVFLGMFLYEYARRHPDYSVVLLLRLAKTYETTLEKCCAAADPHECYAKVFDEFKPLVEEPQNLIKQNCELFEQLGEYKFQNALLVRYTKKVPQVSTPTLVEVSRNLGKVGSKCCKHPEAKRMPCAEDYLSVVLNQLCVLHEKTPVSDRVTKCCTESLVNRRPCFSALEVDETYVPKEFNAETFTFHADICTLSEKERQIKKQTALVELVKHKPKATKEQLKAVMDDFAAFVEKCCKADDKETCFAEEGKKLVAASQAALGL
Kind of data set: HSA binding by fluorescence quenching. The procedure: Fluorescence measurements were made on an automatic scanning Perkin-Elmer LS50B spectrofluorometer with 1.0 cm light path cells equipped with a 150 W xenon (XBO) light source. […] A plot of log (F0-F)/F against log [Q] was used to determine the values of KA and n from the intercept and the slope, respectively. Binding of TMECG, EGCG, and EC to HSA was determined as specified for the BSA binding studies.

Data set [5] is described as follows: UV-visible absorption spectra at different pH (ionization state). In kind it is physicochemical. As to conditions: for Effect of pH on absorption spectra: UV-visible spectra, pH range 5.0–9.0 for TMCG and TMECG. The procedure: It has been shown that the protonation state of methotrexate, trimethoprim, and pyrimethamine modulates the binding of these antifolates to DHFRs from several sources. […] The absorbance maximum at 278 nm undergoes a bathochromic displacement to 328 nm, which is greatest at alkaline pH (pH > 9.0).
To determine if the spectral changes in the SYCG and SYECG solutions with pH were due to an irreversible oxidation reaction or to a reversible protonation step, a pH titration experiment was carried out. An alkaline solution of SYCG and SYECG (pH 8.5) was acidified to pH 2.5 by the addition of dilute HCl. A change in the spectra was observed, indicating a reversible protonation reaction. The spectral changes with pH observed in SYCG and SYECG can be attributed to the hydroxyl group para on the ester-bonded gallate moiety. At acidic pH, these derivatives are mainly present as protonated species, whereas at basic pH or values near neutrality, these derivatives evolve toward the deprotonated species, which are stabilized by resonance (Scheme 3). […] As described, an important factor that decreases catechin bioavailability might be their inability to easily cross cellular membranes by passive diffusion. The presence of several hydroxyl groups in these molecules gives them a high hydrophilic character, which increases the difficulty of passing across lipid membranes.
Ultraviolet-visible absorption spectra of catechins at different pHs were recorded on a UV-Vis Perkin-Elmer Lambda-2 spectrophotometer with a spectral bandwidth of 1 nm at a scan speed of 60 nm s^−1. The experiments were performed in the same buffer as described for DHFR binding studies, and the ionic strength remained constant at an optimum value of 0.15 over the pH range that was used. The pH of the reaction was measured before and after the experiment.

Data set [6] has as its target T3, free recombinant human DHFR (rHDHFR) (Homo sapiens, UniProt P00374).
T3 construct: made in house; host or cells: Bombyx mori chrysalides
T3 sequence (P00374 1-187): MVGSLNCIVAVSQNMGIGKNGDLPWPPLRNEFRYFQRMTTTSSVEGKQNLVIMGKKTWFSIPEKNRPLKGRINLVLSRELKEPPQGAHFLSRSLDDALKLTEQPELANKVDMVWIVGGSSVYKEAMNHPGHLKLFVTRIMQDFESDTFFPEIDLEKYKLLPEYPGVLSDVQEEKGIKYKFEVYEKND
Kind of data set: Binding of polyphenols to free rHDHFR by fluorescence quenching titration. Here is the method: Natural and synthetic derivatives of tea catechins have shown to be good inhibitors of human DHFR [7, 11, 16, 18]. To determine the ability of natural and synthetic polyphenols to bind DHFR, we performed a structure-activity study by analyzing the binding of these polyphenols to DHFR using fluorescence quenching. Effective binding to free recombinant human DHFR (rHDHFR) was determined by measuring the decrease in enzyme fluorescence that occurs upon the formation of the enzyme-inhibitor complex. […] The dissociation constants of the synthetic compounds were on the same order as those of the natural analogues, indicating the high DHFR binding capacities of these new derivatives.
The dissociation constants for the binding of polyphenols to free recombinant human DHFR (rHDHFR) were determined by fluorescence titration in an automatic-scanning FluoroMax-3 (Jobin Ybon, Horiba, Edison, NJ, USA) spectrofluorometer with 1.0 cm light path cells and a 150 W mercury-xenon light source. The formation of a binary complex between the enzyme (2.5 × 10^−7 M) and the ligand (from 0 to 40 µM) was followed by measuring the quenching of the tryptophan fluorescence of the enzyme upon the addition of microliter volumes of a concentrated stock solution of ligand. Experiments were performed at pH 7.5 in a buffer containing 2-(N-morpholino)ethanesulfonic acid (Mes, 0.025 M), sodium acetate (0.025 M), tris(hydroxymethyl)aminomethane (Tris 0.05 M), and NaCl (0.1 M). The temperature was controlled at 25 °C using a Haake D1G circulating bath with a heater and cooler. Fluorescence emission spectra were recorded when the human DHFR fluorescence was excited at 290 nm, and titrations were performed as described elsewhere.

The mark [7] stands for this setting: determined as for BSA binding studies, read-out: Binding affinity to HSA (KA) (converted).
Where [8] appears, read: Table 2, restates Table 1, read-out: KD, order of binding strengths to rHDHFR depending on D-ring substitution.
[9] abbreviates: pH 7.5, 25 °C, fluorescence titration, read-out: Dissociation constant KD of free rHDHFR.

Where two headings read alike, the source gives them in different places.

By melting point is commonly meant the temperature of the solid-liquid transition. `COc1cc(C(=O)O[C@H]2Cc3c(OC(C)=O)cc(OC(C)=O)cc3O[C@@H]2c2ccc(OC(C)=O)c(OC(C)=O)c2)cc(OC)c1OC(C)=O` [ASYCG, 5,7,3’,4’,4’’-penta-O-acetyl-3-O-(3,5-dimethoxybenzoyl)-catechin] registered a melting point of 88 to 93 °C. Further, in data set [1] (Homo sapiens, SK-MEL-28, 144 h), the IC50 is 37.4 ± 4 µM.

As for `O=C(O[C@@H]1Cc2c(O)cc(O)cc2O[C@@H]1c1cc(O)c(O)c(O)c1)c1cc(O)c(O)c(O)c1` [EGCG, epigallocatechin-3-gallate, reference compound], the Kd in data set [2] is 0.0649 µM; in data set [3] (site marker: Blank), 0.0649 µM; in data set [3] (site marker: Ibuprofen) it was 0.082 µM; in data set [3] (site marker: Warfarin), 7.69 µM; in data set [4], 3.85 µM. In data set [2] (catechin-BSA complex, double logarithmic plot), the “Number of binding sites n” value is reported as “approximately 1”. In addition, the “Site selective binding to BSA” value in data set [3] (competition with warfarin (site-I) and ibuprofen (site-II)) was “higher specificity for site-I”.

Consider `Oc1cc(O)c2c(c1)O[C@H](c1ccc(O)c(O)c1)[C@H](O)C2` [EC, epicatechin], for which, in data set [4] (setting [7]), the Kd is 312 µM.

In turn, `COc1cc(C(=O)OC2Cc3c(O)cc(O)cc3OC2c2ccc(O)c(O)c2)cc(OC)c1O` (centres unmarked) [SYCG, 3-O-(4-hydroxy-3,5-dimethoxybenzoyl)-catechin] showed a melting point of 110 to 114 °C. Moreover, in data set [1] (Homo sapiens, SK-MEL-28, 144 h), the IC50 worked out at 126 ± 10 µM. In addition, in data set [5], the “Effect of pH on absorption spectra” value is listed as “strongly affected by the pH” and the “Ionization state at physiologic pH” value is on record as “partially in their ionic form”. For the same compound, the Kd in data set [6] (setting [8]) was determined as 0.72 µM. In addition, the Kd in data set [6] (setting [9]) was 0.72 ± 0.1 µM.

In the case of `COc1cc(C(=O)O[C@@H]2Cc3c(O)cc(O)cc3O[C@@H]2c2ccc(O)c(O)c2)cc(OC)c1OC` [TMECG], the IC50 in data set [1] (Homo sapiens, SK-MEL-28, 144 h) amounted to 2.5 ± 0.6 µM. Also, the “Effect of pH on absorption spectra” value in data set [5] is listed as “no significant changes”. The Kd in data set [6] (setting [8]) is 2.1 µM; in data set [6] (setting [9]) it was 2.1 ± 0.2 µM; in data set [4] (setting [7]), 23.8 µM.

`COc1cc(C(=O)O[C@H]2Cc3c(O)cc(O)cc3O[C@@H]2c2ccc(O)c(O)c2)cc(OC)c1OC(C)=O` [MASYCG, 3-O-(4-acetoxy-3,5-dimethoxybenzoyl)-catechin] showed a melting point of 118 to 122 °C. The IC50 in data set [1] (Homo sapiens, SK-MEL-28, 144 h) came out at 60.9 ± 6 µM.

Consider `COc1cc(C(=O)OC2Cc3c(O)cc(O)cc3OC2c2ccc(O)c(O)c2)cc(OC)c1O` (centres unmarked) [SYECG, 3-O-(4-hydroxy-3,5-dimethoxybenzoyl)-epicatechin], for which the melting point lay in the range of 120 to 123 °C. The IC50 in data set [1] stood at 199 ± 12 µM. Besides, in data set [5], the “Effect of pH on absorption spectra” value is recorded as “strongly affected by the pH” and the “Ionization state at physiologic pH” value was “partially in their ionic form”. Also, in data set [6] (setting [8]), the Kd was found to be 0.77 µM. For the same compound, the Kd in data set [6] (setting [9]) worked out at 0.77 ± 0.07 µM.

Regarding `O=C(O[C@H]1Cc2c(O)cc(O)cc2O[C@@H]1c1ccc(O)c(O)c1)c1cc(O)c(O)c(O)c1` [CG, catechin-3-gallate, reference compound], the IC50 in data set [1] (Homo sapiens, SK-MEL-28, 144 h) is 82.2 ± 8 µM. The Kd was determined as 0.56 µM in data set [6] (setting [8]) and 0.56 ± 0.07 µM in data set [6] (setting [9]).

Turning to `O=C(O[C@@H]1Cc2c(O)cc(O)cc2O[C@@H]1c1ccc(O)c(O)c1)c1cc(O)c(O)c(O)c1` [ECG, epicatechin-3-gallate, reference compound], the IC50 in data set [1] (Homo sapiens, SK-MEL-28, 144 h) is > 100 µM. The Kd in data set [6] (setting [8]) worked out at 0.81 µM; in data set [6] (setting [9]) it was 0.81 ± 0.09 µM.

Values taken from PMC6270263, “Factors Influencing the Antifolate Activity of Synthetic Tea-Derived Catechins” (Molecules, 2013).
